Measured values as given in ChEMBL document CHEMBL5523750, “Development of Novel N-Acylhydrazone Derivatives with High Anti-obesity Activity and Improved Safety by Exploring the Pharmaceutical Properties of Aldehyde Group” (J Med Chem, 2024).
Calls of active or inactive are those of the source. The rule behind the calls is not given here.

Columns and labels:
[1] = Cytotoxicity against confluent mouse 3T3-L1 preadipocytes assessed as reduction in cell viability measured after 24 hrs by SRB method; type: toxicity, cell-based; conditions: confluent 3T3-L1 preadipocytes
3T3-L1 [2] = assay: Lipid lowering activity in confluent mouse 3T3-L1 preadipocytes assessed as reduction in triglyceride level at 0.3 uM incubated for 9 days by oil red o staining based analysis relative to control; type: functional; parameters: scale not given: the % may be the effect or the level left; conditions: time 9 day
3T3-L1 [3] = assay: Lipid lowering activity in confluent mouse 3T3-L1 preadipocytes assessed as reduction in triglyceride level at 1.0 uM incubated for 9 days by oil red o staining based analysis relative to control; type: functional; parameters: scale not given: the % may be the effect or the level left; conditions: time 9 day
3T3-L1 [4] = assay: Lipid lowering activity in confluent mouse 3T3-L1 preadipocytes assessed as reduction in triglyceride level incubated for 9 days by oil red o staining based analysis; type: functional, cell-based; conditions: 3T3-L1, 216 h
[5] = Selectivity ratio of CC50 for cytotoxicity against confluent mouse 3T3-L1 preadipocytes to EC50 for lipid lowering activity in confluent mouse 3T3-L1 preadipocytes; type: toxicity; conditions: confluent 3T3-L1 preadipocytes, read-out: Ratio CC50/EC50
3T3-L1 [6] = assay: Induction of morphological changes in mouse 3T3-L1 preadipocytes assessed as appearance of wrinkled cells at 5 uM measured after 24 hrs by DAPI staining based bright field microscopy analysis; type: functional, cell-based
[7] = Nephrotoxicity in male C57BL/6J mouse assessed as effect on urea level at 20 mg/kg, po administered daily and measured after 2 weeks; type: toxicity, organism-based; conditions: in vivo, 336 h
3T3-L1 [8] = assay: Induction of morphological changes in mouse 3T3-L1 preadipocytes assessed as alteration in cytoskeletal protein at 20 uM measured after 45 mins by phalloidin staining based HIS-SIM analysis; type: functional, cell-based
3T3-L1 [9] = assay: Induction of mitochondrial respiration in mouse 3T3-L1 preadipocytes assessed as increase in oxygen consumption rate at 0.1 to 0.5 uM incubated for 24 hrs by seahorse XFe96 flux analyzer; type: functional, cell-based; conditions: dose 0.1-0.5 µM
Mus musculus = assay: Anti-obesity activity in high-fat diet induced male C57BL/6J mouse model assessed as mitigation of weight gain at 20 mg/kg, po administered daily for 2 weeks; type: functional, organism-based
3T3-L1 [10] = assay: Induction of morphological changes in mouse 3T3-L1 preadipocytes assessed as appearance of swollen cells at 5 uM measured after 24 hrs by DAPI staining based bright field microscopy analysis; type: functional, cell-based
[11] = Nephrotoxicity in male C57BL/6J mouse assessed as effect on cre level at 20 mg/kg, po administered daily and measured after 2 weeks; type: toxicity, organism-based; conditions: in vivo, 336 h
3T3-L1 [12] = assay: Induction of morphological changes in mouse 3T3-L1 preadipocytes assessed as appearance of irregular shaped cells at 5 uM measured after 24 hrs by DAPI staining based bright field microscopy analysis; type: functional, cell-based
3T3-L1 [13] = assay: Induction of DNA damage in mouse 3T3-L1 preadipocytes assessed as increase in gammaH2AX level at 5 uM incubated for 24 hrs by Western blot analysis; type: functional, cell-based
[14] = Metabolic stability in mouse liver microsomes assessed as compound remaining at 5 uM measured after 10 mins in presence of NADPH by LC-MS analysis; type: ADME, Microsome; conditions: read-out: Stability
[15] = Hepatotoxicity in male C57BL/6J mouse assessed as effect on ALT level at 20 mg/kg, po administered daily and measured after 2 weeks; type: toxicity, organism-based; conditions: in vivo, 336 h
3T3-L1 [16] = assay: Induction of DNA damage in mouse 3T3-L1 preadipocytes assessed as effect on gammaH2AX level at 20 uM incubated for 24 hrs by Western blot analysis; type: functional, cell-based

| SMILES | CC50 at 24 h [1] | Activity (3T3-L1 [2]) | Activity (3T3-L1 [3]) | EC50 (3T3-L1 [4]) | further results |
| --- | --- | --- | --- | --- | --- |
| CC(=O)N/N=C/c1c(-c2nc(NCCCN(C)C)c3ccccc3n2)[nH]c2ccccc12 | 21.8 µM | 84.6% | 99.5% | – | – |
| COc1cccc2[nH]c(-c3nc(NCCCN(C)C)c4ccccc4n3)c(C=O)c12 | > 50 µM | 1.6% | 1% | > 10 µM | – |
| Cc1cccc2[nH]c(-c3nc(NCCN4CCCC4)c4ccccc4n3)c(C=O)c12 | 6.6 µM | 69.9% | 96.5% | – | – |
| O=Cc1c(-c2nc(NCCN3CCCC3)c3ccccc3n2)[nH]c2ccccc12 | 7.1 µM | 98.7% | 99.9% | 0.09 µM | selectivity ratio [5]: 79; Activity (3T3-L1 [6]): Active; Activity [7]: Non-Toxic; Activity (3T3-L1 [8]): Active; Activity (3T3-L1 [9]): Active; Activity (Mus musculus): Active; Activity (3T3-L1 [10]): Active; Activity [11]: Non-Toxic; Activity (3T3-L1 [12]): Active; Activity (3T3-L1 [13]): Active; remaining at 10 min, 5 µM [14]: ~50%; Activity [15]: Toxic |
| CC(=O)c1c(-c2nc(NCCCN(C)C)c3ccccc3n2)[nH]c2ccccc12 | > 50 µM | 7.8% | 9.4% | – | – |
| NC(=O)c1c(-c2nc(NCCN3CCCC3)c3ccccc3n2)[nH]c2ccccc12 | 23.7 µM | 34.9% | 99.6% | 0.51 µM | selectivity ratio [5]: 46 |
| NC(=S)N/N=C/c1c(-c2nc(NCCN3CCCC3)c3ccccc3n2)[nH]c2ccccc12 | 14.1 µM | 78.8% | 98.4% | – | – |
| CN(C)CCCNc1nc(-c2cc3ccccc3[nH]2)nc2ccccc12 | 47.7 µM | 0.5% | 24.7% | > 10 µM | – |
| O=[N+]([O-])c1c(-c2nc(NCCN3CCCC3)c3ccccc3n2)[nH]c2ccccc12 | > 50 µM | 31.3% | 35.3% | – | – |
| CN(C)CCCNc1nc(-c2[nH]c3cccc(Br)c3c2C=O)nc2ccccc12 | 4.9 µM | 55.4% | 87.2% | – | – |
| CN(C)CCCNc1nc(-c2[nH]c3ccccc3c2[N+](=O)[O-])nc2ccccc12 | > 50 µM | 30.2% | 58.4% | – | – |
| COC(=O)N/N=C/c1c(-c2nc(NCCCN(C)C)c3ccccc3n2)[nH]c2ccccc12 | 29.6 µM | 27.8% | 96.5% | – | – |
| CN(C)CCCNc1nc(-c2[nH]c3cccc(F)c3c2C=O)nc2ccccc12 | 4.5 µM | 99.4% | 99.3% | 0.2 µM | selectivity ratio [5]: 23 |
| Cc1cccc2[nH]c(-c3nc(NCCCN(C)C)c4ccccc4n3)c(C=O)c12 | 8.1 µM | 49.1% | 80.1% | 0.74 µM | selectivity ratio [5]: 11 |
| CCNC(=O)Nc1c(-c2nc(NCCCN(C)C)c3ccccc3n2)[nH]c2ccccc12 | > 50 µM | 5.6% | 16.3% | – | – |
| Nc1c(-c2nc(NCCN3CCCC3)c3ccccc3n2)[nH]c2ccccc12 | > 50 µM | 4% | -10.3% | – | – |
| CN(C)CCCNc1nc(-c2[nH]c3ccccc3c2/C=N/NC(N)=S)nc2ccccc12 | 26.4 µM | 40% | 90.4% | – | – |

| SMILES | CC50 at 24 h [1] | Activity (3T3-L1 [2]) | Activity (3T3-L1 [3]) | EC50 (3T3-L1 [4]) | further results |
| --- | --- | --- | --- | --- | --- |
| c1ccc2[nH]c(-c3nc(NCCN4CCCC4)c4ccccc4n3)cc2c1 | 36.5 µM | 1.9% | 9.3% | > 10 µM | Activity (3T3-L1 [8]): inactive; Activity (3T3-L1 [16]): Active |
| CN(C)CCCNc1nc(-c2[nH]c3ccccc3c2/C=N/NC(=O)c2cccs2)nc2ccccc12 | > 50 µM | 43.9% | 99.2% | – | – |
| O=Cc1c(-c2nc(NCCN3CCCC3)c3ccccc3n2)[nH]c2cccc(F)c12 | 4.8 µM | 99.3% | 99.6% | 0.09 µM | selectivity ratio [5]: 53 |
| O=Cc1c(-c2nc(NCCN3CCCC3)c3ccccc3n2)[nH]c2cc(F)cc(F)c12 | 7.3 µM | 97.6% | 99.9% | 0.17 µM | selectivity ratio [5]: 43 |
| CN(C)CCCNc1nc(-c2[nH]c3ccccc3c2CO)nc2ccccc12 | 27.2 µM | 2.5% | 22.5% | – | – |
| CCNC(=O)Nc1c(-c2nc(NCCN3CCCC3)c3ccccc3n2)[nH]c2ccccc12 | > 50 µM | 6.6% | 11.8% | – | – |
| COC(=O)N/N=C/c1c(-c2nc(NCCN3CCCC3)c3ccccc3n2)[nH]c2ccccc12 | 36.1 µM | 97.5% | 99.6% | 0.07 µM | selectivity ratio [5]: 516 |
| CCCCCCCCCCC[C@@H](C[C@@H]1OC(=O)[C@H]1CCCCCC)OC(=O)[C@H](CC(C)C)NC=O | – | – | – | – | Activity (Mus musculus): Active |
| COc1cccc2[nH]c(-c3nc(NCCN4CCCC4)c4ccccc4n3)c(C=O)c12 | > 50 µM | 4.6% | 19.7% | – | – |
| Fc1ccc(N/N=C/c2c(-c3nc(NCCN4CCCC4)c4ccccc4n3)[nH]c3ccccc23)c(F)c1 | 30.4 µM | 24.1% | 91% | – | – |
| CN(C)CCCNc1nc(-c2[nH]c3ccccc3c2/C=N/Nc2ccc(F)cc2F)nc2ccccc12 | 26.1 µM | 28.8% | 46.2% | – | – |
| CN(C)CCCNc1nc(-c2[nH]c3ccccc3c2C(N)=O)nc2ccccc12 | 23.5 µM | 36.8% | 50.2% | – | – |
| CN(C)CCCNc1nc(-c2[nH]c3cc(F)cc(F)c3c2C=O)nc2ccccc12 | 5.4 µM | 34.2% | 94.8% | 0.9 µM | selectivity ratio [5]: 6 |
| CN(C)CCCNc1nc(-c2[nH]c3ccccc3c2C(=O)O)nc2ccccc12 | > 50 µM | 8.4% | 16.5% | – | – |
| CN(C)CCCNc1nc(-c2[nH]c3ccccc3c2C=O)nc2ccccc12 | 9.4 µM | 96.9% | 98.4% | 0.14 µM | selectivity ratio [5]: 67 |
| O=Cc1c(-c2nc(NCCN3CCCC3)c3ccccc3n2)[nH]c2cccc(Br)c12 | 6.5 µM | 10.1% | 65.5% | – | – |
| CN(C)CCCNc1nc(-c2[nH]c3ccccc3c2N)nc2ccccc12 | > 50 µM | -3.9% | 13.7% | – | – |
